Legend:
[1] = target: T1, Type-VI α-amylase (porcine pancreas) (Sus scrofa, UniProt P00690); assay: In vitro α-amylase inhibition assay (DNSA); type: biochemical; conditions: read-out: % α-Amylase Inhibition Mean ± SEM
T1 construct: purchased Sigma Aldrich (Darmstadt, Germany); host or cells: porcine pancreas
T1 sequence (P00690 16-511): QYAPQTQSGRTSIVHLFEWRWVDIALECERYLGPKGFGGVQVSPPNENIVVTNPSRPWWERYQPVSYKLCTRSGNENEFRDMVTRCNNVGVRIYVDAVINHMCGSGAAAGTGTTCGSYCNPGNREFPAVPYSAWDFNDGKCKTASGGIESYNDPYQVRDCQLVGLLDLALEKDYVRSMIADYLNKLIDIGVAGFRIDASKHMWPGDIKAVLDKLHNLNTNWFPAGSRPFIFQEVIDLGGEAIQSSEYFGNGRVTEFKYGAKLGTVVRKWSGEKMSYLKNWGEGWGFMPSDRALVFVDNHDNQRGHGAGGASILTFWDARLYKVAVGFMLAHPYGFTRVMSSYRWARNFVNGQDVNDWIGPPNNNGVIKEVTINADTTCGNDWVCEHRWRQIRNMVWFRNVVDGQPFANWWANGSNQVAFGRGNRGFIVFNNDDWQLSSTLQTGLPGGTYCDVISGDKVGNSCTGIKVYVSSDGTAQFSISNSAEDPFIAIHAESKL
Protocol: The α-amylase inhibition activity of morin was assessed using 3, 5-dinitrosalicylic acid (DNSA) assay. Morin, phloroglucinol, and 1-hexyl benzene were dissolved in mixture of 10% DMSO, 0.02M Na2HPO4/NaH2PO4 buffer, and 0.006M NaCl (pH 6.9) and finally dilutions (31.05, 62.5, 125, 250, 500 and 1000 µg/mL) were prepared. In total, 200 μL α-amylase (2 units/mL) was mixed with 200 μL morin and incubated at 30 °C for 10 min. After that, 200 μL starch (1%) was added to each serial dilution and incubated for 3 min. To stop the reaction 200 μL sodium potassium tartrate tetrahydrate reagent, 2M NaOH, and […] DNSA (96mM) reagent were added to the reaction mixture. The reaction mixtures were boiled for 10 min at 85–90 °C in a water bath. After cooling the mixture was diluted with 5mL distilled water and finally at 540 nm absorbance was recorded. A blank solution was prepared containing only isolated compound morin but no enzyme. […] The α-amylase enzyme inhibitory activity was calculated by the following Equation (2): (2) % α − amylase Inhibition =control absorbance−sample absorbance/control absorbance×100
(§1) All the in vitro and in vivo experiments were analyzed in three replicates and determined as mean ± SEM. Student’s t-test and one way ANOVA followed by Dunnett’s post hoc multiple comparison test was used. p ≤ 0.05 were considered as significant. Linear regression analysis was used to calculate the IC50 value for % DPPH, ABTS, α-amylase, and α-glucosidase inhibition against the different concentrations of the test samples by means of Excel program 2007.

[2] = target: Type-I α-glucosidase (Baker Yeast) (Saccharomyces cerevisiae, UniProt P53341); assay: In vitro α-glucosidase inhibition assay (PNPG); type: biochemical
Source text: Chemicals such as Tween-80 (Scharlau-chem., Barcelona, Spain), normal saline solution (Utsoka Pharma, Las Bela Baluchistan, Pakistan), lipid profile tests kits (Human, Hamburg, Germany), renal profile tests kits, and antioxidant enzymes kits (Biomed: Germany; diagnostic) were used in in vivo study. Mueller Hinton (MH) agar and broth (Merck, Modderfontein, South Africa) were used to culture the bacterial strains. Various solvents such as methanol, n-hexane, ethyl acetate, and chloroform (Merck, Darmstadt, Germany) were also used in this study.
The α-glucosidase inhibition potential of morin was determined according to the reported method with minor changes. The reaction mixture was prepared by taking 100 μL α-glucosidase (0.5 unit/mL), 600 μL phosphate buffer (0.1 M; pH 6.9), and 50 μL of isolated compounds (morin, phloroglucinol, and 1-hexyl benzene) with serial dilutions of 31.05, 62.5, 125, 250, 500 and 1000 µg/mL. All the reaction mixtures were incubated at 37 °C for 15 min. The enzymatic reactions were started by adding 100 μL substrate (p-nitro-phenyl-α-D-glucopyranoside) solution (5 mM) formed in phosphate buffer (0.1 M; pH 6.9), finally incubated at 37 °C for 15 min. The reaction was completed by adding sodium carbonate (400 μL; 0.2 M) solution and then at 405 nm absorbance was measured. The blank solution was prepared containing only isolated compounds without α-glucosidase. Percent α-glucosidase inhibition potential was calculated using Equation (3): (3) % α − glucosidase Inhibition =control absorbance−sample absorbance/control absorbance×100
as §1

[3] = test system: STZ-induced diabetic rats; assay: Pancreas histopathological assessment (H & E); type: in vivo, Sprague Dawley adult albino rats; conditions: glibenclamide 5 mg/kg
Source text: For histopathological assessment, the pancreas tissues were removed immediately and washed with cold saline solution to remove the blood. Finally, the pancreas portions were fixed in 10% formalin, dehydrated with mixture of ethanol/xylene and then fixed with paraffin. Staining of tissue slides was done with hematoxylin and eosin (H & E) dye through automatic slide stainer (Sakura Tissue-Tek® DRS™ 2000; Tokyo, Japan). According to the reported assay, the stained slides were observed under microscope to see any variation in pancreatic tissue architecture of STZ-induced diabetic group and treated (glibenclamide/morin) groups.

[4] = test system: STZ-induced diabetic rats; assay: STZ-induced diabetic rat model: fasting blood glucose and body weight; type: in vivo, Sprague Dawley adult albino rats; conditions: vs diabetic control rats
Protocol: Sprague Dawley adult albino rats (body weight range = 170–200 g) were used in in vivo studies. The animals were purchased from Rifah Institute of Pharmaceutical Sciences Islamabad. The entire animals were given food and fresh water ad libitum. The animals were adjusted at room temperature around 22–25 °C. The animals were housed three rats per cage and maintained with light/dark cycle of about 12 h. All the in vivo procedures were carried out according to the ARRIVE guidelines and approval was taken from the Departmental Animal Ethical Committee (DAEC/2019/1), University of Malakand.
(§2) All the animals were separated into nine groups having eight animals each (Table 1). In the current investigational study STZ-induced diabetic model was used to evaluate the anti-hyperglycemic and anti-hyperlipidemic activity of isolated compound morin in chronic multiple dose experiment. All the animals were treated with their respective treatments for 21 days starting daily at 09:00 am. The fasting blood glucose levels were determined at 0, 4th, 7th, 10th, 15th, and 21st days with glucometer from the tail vein. Changes in the body weight were recorded for untreated control, diabetic, and treated groups in fasting condition from day 1 to day 21 of experimental period and are presented as % increase in body weight.
(§3) According to the reported protocol diabetes was induced into Sprague Dawley adult albino rats by intraperitoneal injection of STZ (50 mg/kg body weight). Blood samples were collected from the tail vein through glucometer strips by means of SD glucometer and the level of blood glucose was measured 72 h after STZ injection. Normal control groups were given normal saline (8 mL/kg, p.o.) as a vehicle, while isolated compound morin to the treatment groups from 3 days after STZ administration for 3 weeks. Animals with blood glucose levels higher than 300 mg/dL were considered diabetic. During the experiment the blood glucose level and body weights were measured.

[5] = test system: STZ-induced diabetic rats; assay: STZ-induced diabetic rat model: serum biochemical parameters (liver, renal, lipid profile, HbA1c); type: in vivo, Sprague Dawley adult albino rats
Protocol: as §2, §3
On 21st day of in vivo antidiabetic activity, all the animals were anesthetized by intraperitoneal (IP) injection of pentobarbital sodium (35 mg/kg body weight) and euthanized by means of cervical decapitation according to the ARRIVE guidelines. Blood samples were collected by cardiac puncture and transferred to EDTA containing tubes. Blood was centrifuged at 3500 rpm for 10 min for the separation of serum. Biochemical parameters like serum alkaline phosphatase (ALP), serum glutamate pyruvate transaminase (SGPT), serum glutamate oxaloacetate transaminase (SGOT) and lipid parameters like total cholesterol (TC), triglycerides (TG), low-density lipoproteins (LDL), high-density lipoprotein (HDL), and serum creatinine in serum were assessed by using Biochemistry analyzer (PS-520; Shenzhen Procan Electronics-China) using diagnostic kits (Reactivos, GPL Barcelona, Spain). According to the reported protocol an enzyme-linked immunosorbent assay (ELISA) kit was used to evaluate the level of glycosylated hemoglobin (HbA1c).

Salmonella typhi = assay: Agar well diffusion, zone of inhibition; type: cell-based; conditions: Salmonella enterica, TYPHI, 24 h
Staphylococcus aureus = assay: Agar well diffusion, zone of inhibition; type: cell-based; conditions: 37 °C, 24 h
Protocol: The antibacterial activity of the isolated compounds (morin, phloroglucinol, and 1-hexyl benzene) was determined using agar well diffusion method. Muller–Hinton agar media was prepared and autoclaved at 15 lbs pressure for 20 min and cooled to 45 °C. […] The entire wells were filled with 100 µL of the isolated compounds (stock solution: 1 mg/mL) using microtiter-pipette and allowed to diffuse at room temperature for 2 h. The plates were incubated at 37 °C for 24 h. In the center hole, Imipenem was added which served as positive control. Simultaneous, addition of an equal concentration of DMSO solvent instead of isolated compounds was used as blank. After incubation, the zones of inhibition were measured in millimeters (mm) and mean values were calculated. The experiments were performed in triplicates.

Bacillus cereus = assay: Agar well diffusion, zone of inhibition; type: cell-based; conditions: 37 °C, 24 h
Protocol: (§4) Antibacterial potential of isolated compound was investigated against both Gram-positive and Gram-negative bacterial strains; Escherichia coli, Bacillus cereus, Salmonella typhi, Klebsiella pneumonia, Pseudomonas aeruginosa and Proteus mirabilis. Bacterial strains were provided by the Department of Pharmacy, University of Malakand, Khyber Pakhtunkhwa, Pakistan, and were kept at 4 °C in agar slants in freeze-dried condition until further use.
(§5) Both Gram-positive and Gram-negative bacterial strains Escherichia coli, Bacillus cereus, Salmonella typhi, Klebsiella pneumonia, Pseudomonas aeruginosa and Proteus mirabilis organism viable count per mL in the stock suspension was determined using surface viable counting technique. About 10^8–10^9 colony-forming units (CFU) per mL were used as inoculum in subsequent experiments. A fresh stock suspension was used each time.
(§6) The antibacterial activity of the isolated compounds (morin, phloroglucinol, and 1-hexyl benzene) was determined using agar well diffusion method. Muller–Hinton agar media was prepared and autoclaved at 15 lbs pressure for 20 min and cooled to 45 °C. The standard bacterial stock suspension 10^8–10^9 CFU/mL were spread on Muller–Hinton agar plates and five wells (3 mm in diameter; four on side and one in center) were punched in plates using a sterile cork borer. The entire wells were filled with 100 µL of the isolated compounds (stock solution: 1 mg/mL) using microtiter-pipette and allowed to diffuse at room temperature for 2 h. The plates were incubated at 37 °C for 24 h. In the center hole, Imipenem was added which served as positive control. Simultaneous, addition of an equal concentration of DMSO solvent instead of isolated compounds was used as blank. After incubation, the zones of inhibition were measured in millimeters (mm) and mean values were calculated. The experiments were performed in triplicates.

Escherichia coli = assay: Agar well diffusion, zone of inhibition; type: cell-based; conditions: 37 °C, 24 h
Protocol: as §4, §5, §6

Pseudomonas aeruginosa = assay: Agar well diffusion, zone of inhibition; type: cell-based; conditions: 37 °C, 24 h
Protocol: as §4, §5, §6

Klebsiella pneumonia = assay: Agar well diffusion, zone of inhibition; type: cell-based; conditions: Klebsiella pneumoniae, 37 °C, 24 h
Protocol: as §4, §5, §6

Proteus mirabilis = assay: Agar well diffusion, zone of inhibition; type: cell-based; conditions: 37 °C, 24 h
Protocol: as §4, §5, §6

[6] = glibenclamide 0.5 mg/kg, morin 15, 30, and 50 mg/kg, vs diabetic control rats
[7] = glibenclamide 5 mg/kg, morin 15, 30, and 50 mg/kg body weight, serum, day 21, vs diabetic control

Chain of Type-I α-glucosidase (Baker Yeast) (P53341 whole entry): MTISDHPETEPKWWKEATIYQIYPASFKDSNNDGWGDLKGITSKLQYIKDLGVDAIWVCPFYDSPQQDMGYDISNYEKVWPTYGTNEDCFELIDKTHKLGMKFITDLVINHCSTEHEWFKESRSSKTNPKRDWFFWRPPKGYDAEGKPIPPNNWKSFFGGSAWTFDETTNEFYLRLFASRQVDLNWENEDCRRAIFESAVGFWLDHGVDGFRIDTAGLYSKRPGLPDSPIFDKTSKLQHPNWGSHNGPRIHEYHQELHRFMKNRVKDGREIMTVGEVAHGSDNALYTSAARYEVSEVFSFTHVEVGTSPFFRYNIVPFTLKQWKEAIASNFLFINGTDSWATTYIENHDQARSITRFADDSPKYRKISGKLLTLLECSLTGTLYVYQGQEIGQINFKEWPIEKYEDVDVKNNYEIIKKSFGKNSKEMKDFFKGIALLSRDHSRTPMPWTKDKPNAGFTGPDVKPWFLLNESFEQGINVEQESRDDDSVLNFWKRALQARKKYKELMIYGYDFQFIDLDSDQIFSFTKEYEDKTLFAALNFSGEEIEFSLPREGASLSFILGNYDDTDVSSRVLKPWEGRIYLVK

C[C@H]1O[C@H](O[C@H]2[C@H](O)[C@@H](O)[C@@H](O[C@H]3[C@H](O)[C@@H](O)C(O)O[C@@H]3CO)O[C@@H]2CO)[C@H](O)[C@@H](O)[C@@H]1N[C@H]1C=C(CO)[C@@H](O)[C@H](O)[C@H]1O (stereo partly shown) [Standard acarbose, acarbose, reference compound]
inhibition at 31.05 µg/mL [1]: 48 ± 0.4%
inhibition at 62.5 µg/mL [1]: 62 ± 0.5%
inhibition at 125 µg/mL [1]: 69 ± 0.5%
inhibition at 250 µg/mL [1]: 75 ± 1.1%
inhibition at 500 µg/mL [1]: 83 ± 0.5%
inhibition at 1000 µg/mL [1]: 90 ± 0.5%
% α-Glucosidase Inhibition Mean ± SEM ([2]; 31.05 µg/mL): 60 ± 0.4%
% α-Glucosidase Inhibition Mean ± SEM ([2]; 62.5 µg/mL): 68 ± 0.5%
% α-Glucosidase Inhibition Mean ± SEM ([2]; 125 µg/mL): 71 ± 0.5%
% α-Glucosidase Inhibition Mean ± SEM ([2]; 250 µg/mL): 77 ± 1.0%
% α-Glucosidase Inhibition Mean ± SEM ([2]; 500 µg/mL): 82 ± 0.4%
% α-Glucosidase Inhibition Mean ± SEM ([2]; 1000 µg/mL): 89 ± 0.5%

COc1ccc(Cl)cc1C(=O)NCCc1ccc(S(=O)(=O)NC(=O)NC2CCCCC2)cc1 [glibenclamide, reference compound]
pancreas histopathology [3]: did not show any violation from the normal histological pattern
body weight ([4]; glibenclamide 0.5 mg/kg, p.o.): significantly (p < 0.001) reversed the diabetes-induced decrease in body weight
fasting glucose level ([4]; glibenclamide 5 mg/kg body weight, day 21): significantly (p < 0.001) decreased
HDL cholesterol [5, 6]: significantly increased (p < 0.01)
HbA1c level [5, 6]: significant decrease (p < 0.01; p < 0.001)
LDL level [5, 6]: significant decrease (p < 0.01; p < 0.001)
TC level [5, 6]: significant decrease (p < 0.01; p < 0.001)
TG level [5, 6]: significant decrease (p < 0.01; p < 0.001)
serum creatinine level ([5]; glibenclamide 5 mg/kg, morin 15, 30, and 50 mg/kg body weight, day 21, vs diabetic control): significantly reduced (p < 0.01; p < 0.001)
ALP level [5, 7]: significantly reduced (p < 0.01; p < 0.001)
SGOT level [5, 7]: significantly reduced (p < 0.01; p < 0.001)
SGPT level [5, 7]: significantly reduced (p < 0.01; p < 0.001)

C[C@@H](O)[C@H]1C(=O)N2C(C(=O)O)=C(SCCN=CN)C[C@H]12 [Imipenem, reference compound]
zone of inhibition at 100 µg/mL (Salmonella typhi): 33 ± 0.1 mm
zone of inhibition at 100 µg/mL (Staphylococcus aureus): 25 ± 0.3 mm
zone of inhibition at 100 µg/mL (Bacillus cereus): 30 ± 0.5 mm
zone of inhibition at 100 µg/mL (Escherichia coli): 33 ± 0.2 mm
zone of inhibition at 100 µg/mL (Pseudomonas aeruginosa): 27 ± 1.1 mm
zone of inhibition at 100 µg/mL (Klebsiella pneumonia): 29 ± 0.5 mm
zone of inhibition at 100 µg/mL (Proteus mirabilis): 30 ± 0.5 mm
